IC50 data for 1 compound are collected here from patent US20060040992A1, “Antiinflammatory 3-arylthio-3-thiazolyl-alkylamines” (AstraZeneca AB, priority 2002, published 2006).

pIC50: −log10 of the molar value.

The target in this assay is T1, nitric oxide synthase (Mus musculus, UniProt P29477).
T1 construct: The reaction is started by adding 50 μl of cell lysate (prepared as above); endogenous in cells; host or cells: J774A-1 murine macrophage cell line, induced with LPS and IFN-gamma; crude cell lysate
The assay is described as follows: Screen 1: nitric oxide synthase inhibition, 3H-L-arginine to 3H-L-citrulline conversion, lysate of induced J774A-1 cells. The following applies: enzyme from IFNg/LPS-induced murine macrophage J774A-1 cell lysate; 1 hour at room temperature; read-out: IC50 (concentration of drug substance which gives 50% enzyme inhibition in the assay). It is filed as biochemical. The method, then: The activity of compounds of formula (I), or a pharmaceutically acceptable salt thereof, may be screened for nitric oxide synthase inhibiting activity by a procedure based on that of Förstermann et al., Eur. J. Pharm., 1992, 225, 161-165. Nitric oxide synthase converts ^3H-L-arginine into ^3H-L-citrulline which can be separated by cation exchange chromatography and quantified by liquid scintillation counting.
Enzyme is prepared, after induction, from the cultured murine macrophage cell line J774A-1 (obtained from the laboratories of the Imperial Cancer Research Fund). J774A-1 cells are cultured in Dulbeccos Modified Eagles Medium (DMM) supplemented with 10% foetal bovine serum, 4 mM L-glutamine and antibiotics (100 units/ml penicillin G, […] & […] amphotericin B). Cells are routinely grown in […] flasks is containing 35 ml medium kept at 37° C. and in a humidified atmosphere containing 5% CO2. […]
Labelled L-citrulline is separated from labelled L-arginine using Dowex AG-50W. […] After allowing the samples to dry the L-citruulline is quantified by scintillation counting.
In a typical experiment basal activity is 300 dpm per 75 μl sample which is increased to 1900 dpm in the reagent controls. […] Compounds are tested at a range of concentrations and from the inhibitions obtained IC50 values are calculated. […]

On to `N=C(N)NN` [arninoguanidine], for which the pIC50 is 5.00.
